In EP0412508A1, “Analogues of vasopressin, their preparation and pharmaceutical use” (CESKOSLOVENSKA AKADEMIE VED, priority 1989, dated 1991):

Experiments:
[1] = system: Ratten; assay: uterotonic (agonistic or inhibitory) activity according to Holton, modified by Munsick (printed 'Munich'); conditions: inhibitory activity expressed as pA2, rat
Excerpt: (§1) Die biologische Wirksamkeit wurde an Ratten bestimmt: Die uterotonische (agonistische oder inhibitorische) Wirksamkeit wurde nach Holton (Holton, J. Brit. J. Pharmacol. 3, 328, 1948) in der Bearbeitung nach Munich (Endocrinology 66, 451, 1960) bestimmt; die inhibitorische Aktivität wurde ausgedrückt als pA2 (Eggen et al., J. Gen. Physiol. 56, 250, 1970), die pressorische Wirksamkeit wurde an despinalisierten Rattenmännchen nach Krejci et al., (Brit. J. Pharm. Chemother. 30, 497, 1967) bestimmt, die antidiuretische nach Burn (Burn et al., Biol. Stand., Oxford Univ. Press London 1950). Als Standard wurde für den antidiuretischen Test das [1-Desamino,8-D-Arginin]-Vasopressin (dDAVP) verwendet. Eine Übersicht der biologischen Wirksamkeiten ist der Tabelle 1 zu entnehmen.

[2] = system: despinalisierten Rattenmännchen; assay: pressor activity on despinalised male rats according to Krejci et al.; type: in vivo, Ratten; conditions: agonistic activity
Excerpt: as §1

[3] = system: Ratten; assay: antidiuretic activity according to Burn, standard dDAVP; type: in vivo; conditions: rat; relative to standard [1-Desamino,8-D-Arginin]-Vasopressin (dDAVP)
Excerpt: as §1

[2-p-Methyl-phenylalanin,8-D-Homoarginin]-Vasopressin
Uterotonische Wirksamkeit, pA₂ [1]: pA₂ = 6,85 | Pressorische Wirksamkeit [2]: 0,04 IU/mg | Antidiuretische Wirksamkeit (% dDAVP) [3]: < 0,1 % dDAVP
